Series [1] has as its system N[C@@H](CC(=O)O)C(=O)O. In words: purified protein, by the assay type. The note with it: pH 7.7; 37.0 °C.
In series [2] the target is T1, Mt-AspRS (Mycobacterium tuberculosis, UniProt P9WFW3). In words: Mechanistic characterization, competition with ADPCP in tRNA-independent reaction. The note with it: ADPCP 0-4000 μM; inhibitor 50 and 100 μM. Format: biochemical. The arrangement: made in house.
Series [3] relates to M.tb H37Rv (intra). Kind of series: MIC against intracellular M.tb H37Rv. The format is cell-based. The note with it: Mycobacterium tuberculosis, Table S2.
The subject of series [4] is HepG2. Kind of series: HepG2 cytotoxicity. The note with it: Homo sapiens, Table S2. The format is cell-based.
In series [5] the test system is M.tuberculosis H37Rv. Kind of series: MIC against M. tuberculosis H37Rv (extracellular). The format is cell-based. Conditions: Mycobacterium tuberculosis.
Series [6] has as its system M.bovis BCG empty pMV261. Kind of series: microbe, parasite or virus in culture. Conditions: Mycobacterium tuberculosis variant bovis BCG. Format: cell-based.
Series [7] relates to M.bovis BCG pMV261::Mt-AspRS. Kind of series: microbe, parasite or virus in culture. The format is cell-based, Mycobacterium bovis BCG. The note with it: for MIC: Mycobacterium tuberculosis variant bovis BCG, BCG.
Series [8] addresses T1, Mt-AspRS. Kind of series: biochemical.
Series [9] has as its target T1, Mt-AspRS. In words: tRNA-independent ATP release assay (coupled enzymes, NADPH fluorescence). The format is biochemical. The arrangement: made in house. Conditions: Table S2, 0.5 μM enzyme, 2 mM ADPCP, mean of two replicates.
Setting [10] is: Table S1, read-out: MIC M.tuberculosis H37Rv.
Setting [11] is: Table S2, extracellular, read-out: MIC M.tb H37Rv (extra).
Where [12] appears, read: read-out: MIC M. bovis empty pMV261 BCG.
The mark [13] stands for this setting: read-out: MIC M.bovis BCG empty pMV261.
[14] abbreviates: read-out: MIC M. bovis BCG pMV261::AspRS.
[15] abbreviates: read-out: MIC M.bovis BCG pMV261::Mt-AspRS.

In brackets after ≈: the same amount, converted by molar mass. Where two headings read alike, the source gives them in different places.

One may read the Km as the concentration of substrate that gives half-maximal velocity. What is called IC50 is the midpoint of a concentration-inhibition curve.

T1 sequence (P9WFW3 whole entry): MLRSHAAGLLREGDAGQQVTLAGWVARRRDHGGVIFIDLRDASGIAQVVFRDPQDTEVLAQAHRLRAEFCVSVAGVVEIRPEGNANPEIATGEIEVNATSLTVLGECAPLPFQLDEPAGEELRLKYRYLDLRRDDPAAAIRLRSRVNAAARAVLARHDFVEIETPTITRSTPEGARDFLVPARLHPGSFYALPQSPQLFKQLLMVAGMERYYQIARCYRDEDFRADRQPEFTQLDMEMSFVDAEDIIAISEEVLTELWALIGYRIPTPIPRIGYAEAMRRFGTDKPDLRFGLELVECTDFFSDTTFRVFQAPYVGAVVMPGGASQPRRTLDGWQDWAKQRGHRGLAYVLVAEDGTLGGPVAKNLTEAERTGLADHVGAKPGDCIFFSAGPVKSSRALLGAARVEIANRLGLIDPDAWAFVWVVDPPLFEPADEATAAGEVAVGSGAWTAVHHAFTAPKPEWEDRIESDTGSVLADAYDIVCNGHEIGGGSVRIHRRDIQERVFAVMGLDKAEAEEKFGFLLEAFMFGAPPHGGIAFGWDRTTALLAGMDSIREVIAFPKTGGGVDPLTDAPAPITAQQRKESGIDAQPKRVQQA

In the case of “Mt-AspRS (Mycobacterium tuberculosis H37Rv)”, in [1], the Km is given as 13.8 ± 9.6 µM.

Consider `O=C1OC2(CCC(CNc3ccc(-c4cc(F)cc(F)c4)nn3)CC2)CN1c1cccnn1` (stereo not shown) [GSK97C], for which, in series [2], the “mode of inhibition with regard to ADPCP” value was “Reversible and non-competitive”. The MIC in [3] is 3.16 µM (≈ 1.43 µg/mL); in series [5] (setting [10]), 20 µM (≈ 9.05 µg/mL); in series [5] (setting [11]) it was 20 µM (≈ 9.05 µg/mL); in series [6] (setting [12]), 10.5 µM (≈ 4.75 µg/mL); in [6] (setting [13]), 10.5 µM (≈ 4.75 µg/mL); in series [7] (setting [14]), 24.9 µM (≈ 11.3 µg/mL). Further, in series [7] (setting [15]), the MIC worked out at 24.9 µM (≈ 11.3 µg/mL). Also, the concentration for half-maximal inhibition (IC50) is 40 µM in series [4] and 1.12 µM in series [8]. Moreover, the “Ratio (MIC shift)” value in series [7] is given as 2.4.

Take `Nc1ccc(/C=C/C(=O)N2CCC(COc3cccnc3)CC2)cn1` [GSK92A]: the MIC in [3] is greater than 50.1 µM; in [5] (setting [11]) it was greater than 80 µM. The IC50 is 21.3 µM in [9] and greater than 100 µM in series [4].

On to `O=C(O)c1ccc(Nc2nc(-c3cccs3)cs2)cc1O` [GSK93A], for which, in series [2], the “mode of inhibition with regard to ADPCP” value is “Reversible and non-competitive”. For the same molecule, the MIC in series [3] is greater than 50.1 µM; in series [5] (setting [10]) it was 31.2 µM (≈ 9.95 µg/mL); in series [5] (setting [11]), 31.2 µM (≈ 9.95 µg/mL); in series [6] (setting [12]) it was 0.4 µM (≈ 0.127 µg/mL); in [6] (setting [13]) it was 0.4 µM (≈ 0.127 µg/mL); in series [7] (setting [14]), 1.7 µM (≈ 0.541 µg/mL). Moreover, in [7] (setting [15]), the MIC stood at 1.7 µM (≈ 0.541 µg/mL). The IC50 in series [4] was greater than 100 µM; in [8], 35.6 µM. In series [7], the “Ratio (MIC shift)” value was 4.3.

`N#Cc1ccc(COc2ccc3c(c2)CCN(C(=O)/C=C/c2ccc(Nc4ccc(F)cn4)cc2)C3)cc1` [GSK85A]: the MIC in [3] is greater than 50.1 µM; in [5] (setting [11]), 2.5 µM (≈ 1.26 µg/mL). The IC50 came out at 3.37 µM in series [9] and 25.1 µM in [4].

(Values after publication PMC6107548, “Identification and characterization of aspartyl-tRNA synthetase inhibitors against Mycobacterium tuberculosis by an integrated whole-cell target-based approach” (Scientific Reports, 2018).)
